Data on 53 molecules can be found in the pKa sets of Baltruschat and Czodrowski (2020).

The conditions of the first data set: acidic group.
What is called pKa is the negative logarithm of the acid dissociation constant. Read a low pKa as a stronger acid or weaker base. Consider `Cc1nonc1NS(=O)(=O)c1ccc(N)cc1`, for which the pKa came to 4. On the same count and under the same terms, next, `[O-][N+]([O-])=C(CO)CO`: 13.5. Molecule `[NH3+]C(c1cccc(O)c1O)P(=O)([O-])O` (centres undefined) came in with a pKa of 5.06. On the same count and under the same terms, then `Oc1c(I)cc(I)c2cccnc12`, with 8; and `O=C(O)CCc1cccs1`, with 4.34; and `Nc1nc2nc[nH]c2c(N)[n+]1[O-]`, with 9.7. On the same count and under the same terms, next, `O=C(O)CCS`: 4.38; `Cn1c[nH+]cc1C[C@H]([NH3+])C(=O)O`: 1.84. Same read-out and setting: next, `Cc1cc(C)[nH]n1`: 15.

Turning to `O=C(Cc1ccncc1)c1ccccc1`, the pKa was determined as 12.7. The same measure, in the same setting: next, `NC(=N\O)/C(N)=N/O`: 11.3. Same read-out and setting: next, `CC(=O)C(C)C(C)=O`: 10.8; `CC(=O)CC(=O)Nc1ccc(C)cc1`: 10.2; `CC(C)c1cccc(=O)c(O)c1`: 7.22. Still for that read-out and setting: then `O=N/C(=N/O)c1ccccc1`, with 4.9; and `Nc1nccc2c1[nH+]cn2CCOCP(=O)([O-])O`, with 6.56. `C[n+]1c2ccccc2cc2ccc(N)cc21` returned a pKa of 11.8. Same read-out and setting: then `O=C(O)CSC(c1ccccc1)(c1ccccc1)c1ccccc1`, with 4.32; and `[O-]c1ccc(O)cc1Cl`, with 10.8. On to `Cc1ccc(C(=O)O)o1`, for which the pKa was found to be 3.42. On the same count and under the same terms, then `Oc1ccc2ccccc2[nH+]1`, with 0.31.

Regarding `O=C([O-])[C@@H](NCC[NH2+][C@@H](C(=O)[O-])c1ccccc1O)c1ccccc1O`, the pKa is 8.76. The same measure, in the same setting: then `CC(=O)c1ccc(O)c(=O)cc1`, with 5.01; and `O=C1C=CC(=NO)C=C1`, with 6.36; and `Nc1nnc(S(N)(=O)=O)s1`, with 7.69. On the same count and under the same terms, next, `Cc1cccc(SCC(=O)O)c1`: 3.52; `NC(=O)C1CC2CCN1CC2` (centres undefined): 9.04.

The data set is the same for the next values; noted with them: basic group.
Regarding `Nc1cccc2nnn([C@@H]3C[C@@H](O)[C@H](CO)O3)c12`, the pKa came out at 1.8. Same read-out and setting: next, `COCc1nc2c(n1C)C(=O)c1ncnc([O-])c1C2=O`: 6.17; `c1ccc(NCCN2CCCCC2)cc1`: 9.2.

`Nc1c(C(=O)[O-])ncn1[C@H]1O[C@@H](CO)[C@H](O)[C@@H]1O` returned a pKa of 5.9. Same read-out and setting: next, `Clc1ccc(-c2cnc(-c3ccccc3)o2)cc1`: 0.7. The same measure, in the same setting: then `CC(C)Cc1ccc(O)c(CN(C)C)c1`, with 8.51; and `Oc1c(I)cc(I)c2cccnc12`, with 2.7; and `Nc1nc2nc[nH]c2c(N)[n+]1[O-]`, with 3.7. On the same count and under the same terms, next, `c1ccc2nnccc2c1`: 2.29; `Cc1cc([S-])nc([S-])n1`: 12. Take `CCCCCCN`: the pKa turned out to be 10.7.

Consider `CSCc1cccc(CSC)n1`, for which the pKa was found to be 4.19. Turning to `C1CN(CC[NH+]2CCOCC2)CCO1`, the pKa was found to be 3.63. Still for that read-out and setting: then `Cc1cc(C)[nH]n1`, with 4.32; and `O=C(Cc1ccncc1)c1ccccc1`, with 4.63. The same measure, in the same setting: then `NC(=N\O)/C(N)=N/O`, with 2.97; and `Nc1ccccc1NC(=O)c1ccc([N+](=O)[O-])cc1`, with 3.01.

For `CSc1nccc(C)n1`, the pKa worked out at 1.95. On the same count and under the same terms, then `N[C@H]1CCC[C@H](O)C1`, with 10.1. Consider `[O-]c1ccc([O-])nn1`, for which the pKa stood at 13.

In the case of `C=C(C)C(=O)OCCNC`, the pKa is 8.96. As to `CC[NH+](CC)CCOCCN(C)C`, the pKa was 8.4. The same measure, in the same setting: then `Nc1nc(N(CCO)CCO)nc(N(CCO)CCO)n1`, with 5.15. Turning to `NC1=N[C@@H](CC(=O)[O-])C(=O)N1CCCC(N)C(=O)[O-]` (some centres undefined), the pKa was 9.55. On to `Cc1ccc2c(c1)CCN2`, for which the pKa was 5. Turning to `O=C([O-])[C@@H](NCC[NH2+][C@@H](C(=O)[O-])c1ccccc1O)c1ccccc1O`, the pKa turned out to be 6.36. `Cc1ccc(N2CCCC2)cc1` had a pKa of 4.69.

Consider `N#Cc1ccc(N)c2ccccc12`, for which the pKa turned out to be 1.2.

Turning to `C[NH+](C)CCNCC[NH3+]`, the pKa is 4.36. On the same count and under the same terms, then `c1ccc2c(c1)CCNC2`, with 9.48; and `CCN(C)c1ccccc1`, with 6.02. The same measure, in the same setting: then `O=C1N[C@@H](Cc2cnc[nH]2)C(=O)N[C@H]1Cc1cnc[nH]1`, with 6.54.
